The values that follow come from patent publication US12559492B2, “BRAF degraders” (C4 Therapeutics, Inc., priority 2020, dated 2026).

The DC50 is the midpoint of the concentration-degradation curve. The low end stands for a more potent degrader, the high end for a less potent degrader. What is called Emax is the greatest response seen or fitted, relative to the assay's reference.

This test addresses BRAF^V600E protein (Homo sapiens, UniProt P15056, V600E). Kind of test: HiBiT cellular BRAF V600E degradation assay. The test is classed as cell-based. The settings on record: 24 h incubation; for DC50: A375.10 cells (HiBiT tag knocked in at N-terminal of BRAF V600E), concentration at which 50% of total cellular BRAF V600E is degraded; for Emax: A375.10 cells, Emax = amount of residual protein remaining in the cell after compound treatment, read-out: HiBit 24 h Emax. For orientation: With HiBiT, luminescence reflects the tagged protein that the partner subunit can reach.

BRAF^V600E protein, sequence (P15056 whole entry V600E): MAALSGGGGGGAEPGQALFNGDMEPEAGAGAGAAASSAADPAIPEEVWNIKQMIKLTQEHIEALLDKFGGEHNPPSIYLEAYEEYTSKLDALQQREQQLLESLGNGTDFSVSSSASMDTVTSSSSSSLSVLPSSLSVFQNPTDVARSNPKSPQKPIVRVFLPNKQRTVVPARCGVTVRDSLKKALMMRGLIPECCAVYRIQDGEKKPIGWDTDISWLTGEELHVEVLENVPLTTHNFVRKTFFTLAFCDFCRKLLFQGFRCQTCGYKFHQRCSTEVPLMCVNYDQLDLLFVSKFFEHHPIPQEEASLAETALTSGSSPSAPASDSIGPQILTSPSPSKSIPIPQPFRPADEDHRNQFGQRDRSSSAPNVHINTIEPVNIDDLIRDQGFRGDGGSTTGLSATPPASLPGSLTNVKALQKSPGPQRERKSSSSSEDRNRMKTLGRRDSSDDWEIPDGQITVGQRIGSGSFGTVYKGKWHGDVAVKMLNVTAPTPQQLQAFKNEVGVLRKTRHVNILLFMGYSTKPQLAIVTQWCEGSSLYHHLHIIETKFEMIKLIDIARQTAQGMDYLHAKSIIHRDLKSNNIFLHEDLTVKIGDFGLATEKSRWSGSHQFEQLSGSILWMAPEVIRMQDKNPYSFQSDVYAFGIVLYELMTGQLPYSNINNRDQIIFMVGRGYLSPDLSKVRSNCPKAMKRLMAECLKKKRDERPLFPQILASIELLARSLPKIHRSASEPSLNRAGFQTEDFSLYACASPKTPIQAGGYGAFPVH

As to `O=C1CCC(Nc2ccc(N3CCC(O)(CC(=O)N4CCN(c5ccc(-c6cnc7[nH]cc(C(=O)c8c(F)ccc(NS(=O)(=O)N9CC[C@@H](F)C9)c8F)c7c6)cn5)CC4)CC3)c(F)c2)C(=O)N1` (stereo partly drawn) [Example 190, (3R)—N-[3-[5-[6-[4-[2-[1-[4-[(2,6-dioxo-3-piperidyl)amino]-2-fluoro-phenyl]-4-hydroxy-4-piperidyl]acetyl]piperazin-1-yl]-3-pyridyl]-1H-pyrrolo[2,3-b]pyridine-3-carbonyl]-2,4-difluoro-phenyl]-3-fluoro-pyrrolidine-1-sulfonamide], the DC50 came out at 2.72 nM and the Emax is 7.07%.
The matching figures for `O=C1CCC(Nc2ccc(N3CCC(O)(CC(=O)N4CCN(c5ccc(-c6cnc7[nH]cc(C(=O)c8c(F)ccc(NS(=O)(=O)N9CC[C@@H](F)C9)c8F)c7c6)cc5)CC4)CC3)c(F)c2)C(=O)N1` (stereo partly drawn) [Example 191, (3R)—N-[3-[5-[4-[4-[2-[1-[4-[(2,6-dioxo-3-piperidyl)amino]-2-fluoro-phenyl]-4-hydroxy-4-piperidyl]acetyl]piperazin-1-yl]phenyl]-1H-pyrrolo[2,3-b]pyridine-3-carbonyl]-2,4-difluoro-phenyl]-3-fluoro-pyrrolidine-1-sulfonamide]: 3.89 nM and 7.76%.
The like results for `CCN(C)S(=O)(=O)Nc1ccc(F)c(C(=O)c2c[nH]c3ncc(-c4ccc(N5CCN(C(=O)CC6(O)CCN(c7ccc(NC8CCC(=O)NC8=O)cc7F)CC6)CC5)c(C)c4)cc23)c1F` (centres unmarked) [Example 192, 5-[4-[4-[2-[1-[4-[(2,6-dioxo-3-piperidyl)amino]-2-fluoro-phenyl]-4-hydroxy-4-piperidyl]acetyl]piperazin-1-yl]-3-methyl-phenyl]-3-[3-[[ethyl(methyl)sulfamoyl]amino]-2,6-difluoro-benzoyl]-1H-pyrrolo[2,3-b]pyridine] were, in that order, 13.9 nM and 8.18%.
The matching figures for `CCN(C)S(=O)(=O)Nc1ccc(F)c(C(=O)c2c[nH]c3ncc(-c4ccc(N5CCN(C(=O)CC6(O)CCN(c7ccc8c(N9CCC(=O)NC9=O)nn(C)c8c7)CC6)CC5)nc4)cc23)c1F` [Example 193, 3-(2,4-dioxohexahydropyrimidin-1-yl)-6-[4-[2-[4-[5-[3-[3-[[ethyl(methyl)sulfamoyl]amino]-2,6-difluoro-benzoyl]-1H-pyrrolo[2,3-b]pyridin-5-yl]-2-pyridyl]piperazin-1-yl]-2-oxo-ethyl]-4-hydroxy-1-piperidyl]-1-methyl-indazole]: 1.7 nM and 7.39%.
For the molecule `CCN(C)S(=O)(=O)Nc1ccc(F)c(C(=O)c2c[nH]c3ncc(-c4cnc(N5CCN(C(=O)CC6(O)CCN(c7ccc(N8CCC(=O)NC8=O)cc7F)CC6)CC5)c(F)c4)cc23)c1F` [Example 194, 5-[6-[4-[2-[1-[4-(2,4-dioxohexahydropyrimidin-1-yl)-2-fluoro-phenyl]-4-hydroxy-4-piperidyl]acetyl]piperazin-1-yl]-5-fluoro-3-pyridyl]-3-[3-[[ethyl(methyl)sulfamoyl]amino]-2,6-difluoro-benzoyl]-1H-pyrrolo[2,3-b]pyridine], the DC50 was 4.5 nM and the Emax was found to be 8.29%.
The matching figures for `CCN(C)S(=O)(=O)Nc1ccc(F)c(C(=O)c2c[nH]c3ncc(-c4cc(F)c(N5CCN(C(=O)CC6(O)CCN(c7ccc(NC8CCC(=O)NC8=O)cc7F)CC6)CC5)c(F)c4)cc23)c1F` (centres unmarked) [Example 195, 5-[4-[4-[2-[1-[4-[(2,6-dioxo-3-piperidyl)amino]-2-fluoro-phenyl]-4-hydroxy-4-piperidyl]acetyl]piperazin-1-yl]-3,5-difluoro-phenyl]-3-[3-[[ethyl(methyl)sulfamoyl]amino]-2,6-difluoro-benzoyl]-1H-pyrrolo[2,3-b]pyridine]: 6.23 nM and 7.6%.
For the molecule `CCN(C)S(=O)(=O)Nc1ccc(F)c(C(=O)c2c[nH]c3ncc(-c4cnc(N5CC6(C5)CC(O)(C5CCN(c7ccc(NC8CCC(=O)NC8=O)cc7F)CC5)C6)nc4)cc23)c1F` (centres unmarked) [Example 196, 5-[2-[6-[1-[4-[(2,6-dioxo-3-piperidyl)amino]-2-fluoro-phenyl]-4-piperidyl]-6-hydroxy-2-azaspiro[3.3]heptan-2-yl]pyrimidin-5-yl]-3-[3-[[ethyl(methyl)sulfamoyl]amino]-2,6-difluoro-benzoyl]-1H-pyrrolo[2,3-b]pyridine], the DC50 worked out at 1.14 nM and the Emax worked out at 6.81%.
The like results for `CCN(C)S(=O)(=O)Nc1ccc(F)c(C(=O)c2c[nH]c3ncc(-c4ccc(N5CCN(C(=O)CC6(O)CCN(c7ccc(NC8CCC(=O)NC8=O)cc7C(F)F)CC6)CC5)nc4)cc23)c1F` (centres unmarked) [Example 197, 5-[6-[4-[2-[1-[2-(difluoromethyl)-4-[(2,6-dioxo-3-piperidyl)amino]phenyl]-4-hydroxy-4-piperidyl]acetyl]piperazin-1-yl]-3-pyridyl]-3-[3-[[ethyl(methyl)sulfamoyl]amino]-2,6-difluoro-benzoyl]-1H-pyrrolo[2,3-b]pyridine] were, in that order, 7.36 nM and 8.11%.
The matching figures for `CCN(C)S(=O)(=O)Nc1ccc(F)c(C(=O)c2c[nH]c3ncc(-c4ccc(N5CCN(C(=O)CC6(O)CCN(c7ccc(NC8CCC(=O)NC8=O)cc7F)CC6)CC5)c(F)c4)cc23)c1F` (centres unmarked) [Example 198, 5-[4-[4-[2-[1-[4-[(2,6-dioxo-3-piperidyl)amino]-2-fluoro-phenyl]-4-hydroxy-4-piperidyl]acetyl]piperazin-1-yl]-3-fluoro-phenyl]-3-[3-[[ethyl(methyl)sulfamoyl]amino]-2,6-difluoro-benzoyl]-1H-pyrrolo[2,3-b]pyridine]: 2.42 nM and 6.19%.
The like results for `CCN(C)S(=O)(=O)Nc1ccc(F)c(C(=O)c2c[nH]c3ncc(-c4cnc(N5CC6(CC(C7CCN(c8ccc(NC9CCC(=O)NC9=O)cc8F)CC7)C6)C5)nc4)cc23)c1F` (centres unmarked) [Example 199, 5-[2-[6-[1-[4-[(2,6-dioxo-3-piperidyl)amino]-2-fluoro-phenyl]-4-piperidyl]-2-azaspiro[3.3]heptan-2-yl]pyrimidin-5-yl]-3-[3-[[ethyl(methyl)sulfamoyl]amino]-2,6-difluoro-benzoyl]-1H-pyrrolo[2,3-b]pyridine] were, in that order, 28.3 nM and 7.17%.
Take `CCN(C)S(=O)(=O)Nc1ccc(Cl)c(C(=O)c2c[nH]c3ncc(-c4ccc(N5CCN(C(=O)CC6(O)CCN(c7ccc(NC8CCC(=O)NC8=O)cc7F)CC6)CC5)nc4)cc23)c1F` (centres unmarked) [Example 201, 3-[6-chloro-3-[[ethyl(methyl)sulfamoyl]amino]-2-fluoro-benzoyl]-5-[6-[4-[2-[1-[4-[(2,6-dioxo-3-piperidyl)amino]-2-fluoro-phenyl]-4-hydroxy-4-piperidyl]acetyl]piperazin-1-yl]-3-pyridyl]-1H-pyrrolo[2,3-b]pyridine]: half-maximal degradation (DC50) was put at 4.19 nM and the Emax came out at 6.67%.
The like results for `CCN(C)S(=O)(=O)Nc1ccc(F)c(C(=O)c2c[nH]c3ncc(-c4ccc(N5CCN(C(=O)CC6(O)CCN(c7ccc8c(N9CCC(=O)NC9=O)nn(C)c8c7)CC6)CC5)cc4)cc23)c1F` [Example 202, 3-(2,4-dioxohexahydropyrimidin-1-yl)-6-[4-[2-[4-[4-[3-[3-[[ethyl(methyl)sulfamoyl]amino]-2,6-difluoro-benzoyl]-1H-pyrrolo[2,3-b]pyridin-5-yl]phenyl]piperazin-1-yl]-2-oxo-ethyl]-4-hydroxy-1-piperidyl]-1-methyl-indazole] were, in that order, 2.1 nM and 7.44%.
The matching figures for `CCN(C)S(=O)(=O)Nc1ccc(F)c(C(=O)c2c[nH]c3ncc(-c4cnc(N5CC6(C5)CN(C5CCN(c7ccc(NC8CCC(=O)NC8=O)cc7F)CC5)C6)nc4)cc23)c1F` (centres unmarked) [Example 203, 5-[2-[2-[1-[4-[(2,6-dioxo-3-piperidyl)amino]-2-fluoro-phenyl]-4-piperidyl]-2,6-diazaspiro[3.3]heptan-6-yl]pyrimidin-5-yl]-3-[3-[[ethyl(methyl)sulfamoyl]amino]-2,6-difluoro-benzoyl]-1H-pyrrolo[2,3-b]pyridine]: 2.28 nM and 5.13%.
The like results for `CCN(C)S(=O)(=O)Nc1ccc(F)c(C(=O)c2c[nH]c3ncc(-c4cnc(N5CCN(C(=O)CC6(O)CCN(c7ccc(NC8CCC(=O)NC8=O)cc7C(F)F)CC6)CC5)nc4)cc23)c1F` (centres unmarked) [Example 204, 5-[2-[4-[2-[1-[2-(difluoromethyl)-4-[(2,6-dioxo-3-piperidyl)amino]phenyl]-4-hydroxy-4-piperidyl]acetyl]piperazin-1-yl]pyrimidin-5-yl]-3-[3-[[ethyl(methyl)sulfamoyl]amino]-2,6-difluoro-benzoyl]-1H-pyrrolo[2,3-b]pyridine] were, in that order, 3.8 nM and 8.6%.
As to `CCN(C)S(=O)(=O)Nc1ccc(F)c(C(=O)c2c[nH]c3ncc(-c4cnc(N5CCN(C(=O)CC6(O)CCN(c7ccc(C8CCC(=O)NC8=O)cc7F)CC6)CC5)c(F)c4)cc23)c1F` (centres unmarked) [Example 205, 5-[6-[4-[2-[1-[4-(2,6-dioxo-3-piperidyl)-2-fluoro-phenyl]-4-hydroxy-4-piperidyl]acetyl]piperazin-1-yl]-5-fluoro-3-pyridyl]-3-[3-[[ethyl(methyl)sulfamoyl]amino]-2,6-difluoro-benzoyl]-1H-pyrrolo[2,3-b]pyridine], the DC50 came to 2.34 nM and the Emax came to 6.63%.
In the case of `CCN(C)S(=O)(=O)Nc1ccc(F)c(C(=O)c2c[nH]c3ncc(-c4cnc(N5CCN(C(=O)CC6(O)CCN(c7ccc(N[C@H]8CCC(=O)NC8=O)cc7Cl)CC6)CC5)nc4)cc23)c1F` [Example 206, 5-[2-[4-[2-[1-[2-chloro-4-[[(3S)-2,6-dioxo-3-piperidyl]amino]phenyl]-4-hydroxy-4-piperidyl]acetyl]piperazin-1-yl]pyrimidin-5-yl]-3-[3-[[ethyl(methyl)sulfamoyl]amino]-2,6-difluoro-benzoyl]-1H-pyrrolo[2,3-b]pyridine], the DC50 worked out at 2.28 nM and the Emax was 6.9%.
